Assay results taken from patent US20130281413A1, “Salicylate Conjugates Useful For Treating Metabolic Disorders” (Genmedica Therapeutics SL, priority 2008, published 2013).

Legend:
β-cells [1] = assay: Protection of β-cell failure and prevention of hyperglycemia in streptozotocin treated rats; assay type: in vivo
β-cells [2] = assay: Preserving β-cell function of mice challenged by one shot of streptozotocin; assay type: in vivo; settings: oral or intraperitoneal, prior and during 5 days following streptozotocin 45 mg/kg i.p.
Procedure: Further, compounds of the present invention, such as Salnacedin, are tested for their efficiency at preserving β-cell function of mice challenged by one shot of streptozotocin (45 mg/kg i.p.).

[3] = test system: streptozotocin-induced diabetic mice; assay: Type 1 diabetic model in mice (streptozotocin 120 mg/kg i.p.); assay type: in vivo; settings: 4 weeks
Procedure: Mice induced by streptozotocin injection (120 mg/kg i.p.) are treated for 4 weeks with 250 mg/kg/day (oral or i.p.) of a compound of the present invention, such as […]. At the end of the 4 week treatment, fasting glucose, fructosamine, triglycerides and cholesterol are measured.

ob/ob and db/db mice = assay: Restoration of insulin sensibility in ob/ob and db/db mice; assay type: in vivo
Procedure: Eight week old ob/ob and db/db mice are treated for 3 to 4 weeks with a daily dose of 250 mg/kg of a compound of the present invention, such as […], by oral gavage or with drug mix with food or subcutaneously. […] Additionally, the levels of insulin are measured 15 min following the glucose loading to determine the capacity of the β-cells to secrete insulin.

[4] = test system: Zucker diabetic fatty (ZDF) rats; assay: Restoration of insulin sensitivity in Zucker diabetic fatty (ZDF) rats; assay type: in vivo; settings: 250 mg/kg oral daily
Procedure: To assess whether conjugates comprising an antioxidant agent and an inflammatory agent would prevent glucose toxicity and progression of diabetes mellitus associated with β-cell failure overtime, we assessed whether compounds of Formula (I), including salnacedin, would alter the development of the disease in this Type 2 diabetic animal model.
Zucker diabetic rats from 6 to 12 weeks of age are treated daily with an oral dose of 250 mg/kg of a compound of the present invention, such as salnacedin.

β-cells [5] = assay: In vivo beta cell protection model (alloxan), FIG. 6; parameters: species or system cd-1 mice; settings: for effect of alloxan on β-cells: lysine salts, single i.p. administration 1 hour before alloxan 200 mg/kg
Procedure: Beta-cell destruction was induced in cd-1 mice after 3 hours of fasting by a single intraperitoneal injection of a freshly prepared solution of alloxan 200 mg/kg (Sigma-Aldrich, San Luis, Mo.) that was dissolved in NaCl 0.9%. Single intraperitoneal drug administration was 1 hour before the alloxan administration. Animals received the different drugs dissolved in PBS pH 7.4, and the animals that not received any drug were injected with the vehicle, in this case PBS pH 7.4. At the end of the treatment, at day 4, animals were killed and the plasma collected and kept at −20° C. until used.
The circulating glucose concentration was determined by a rapid glucose analyzer (Accu-Chek Aviva; Roche). Plasma triglycerides and non esterified fatty acids were determined with standard colorimetric methods (Biosystems, Barcelona, Spain, and Wako Chemicals, Neuss, Germany, respectively). Plasma insulin concentration was determined by enzyme-linked immunosorbent assay method (CrystalChem, Downers Grove, Ill.).

[6] = test system: animal models of diabetes; assay: Summary of effects in different animal models of diabetes; assay type: in vivo
[7] = test system: Zucker fa/fa rats or ob/ob mice; settings: 120 mg/kg/day subcutaneous infusion, 3-4 weeks; cited from earlier work
human diabetic patients = settings: 4.5 g/day; cited from earlier work
IKKβ = settings: diabetic animals; cited from earlier work
[8] = 250 mg/kg/day oral or i.p., vs control group

In the case of `CC(=O)N[C@@H](CSC(=O)c1ccccc1O)C(=O)O` [Example 1, (R)-2-acetamido-3-(2-hydroxybenzoylthio)propanoic acid], the blood glucose level (β-cells [1]; pretreated rats vs control group, associated with preserved capacity of β-cell to secrete insulin) is reported as “lower than the control group”, the “β-cell preservation and development of hyperglycemia” value (β-cells [1]; rats, ~250 mg/kg orally and/or intraperitoneally prior to streptozotocin 45 mg/kg i.p., followed by 4 additional treatment days) is reported as “preserve β-cells, reducing the development of hyperglycemia” and the “levels of 8-hydroxy-deoxyguanosine (8 OhdG) and malondialdehyde+4-hydroxy-2-nonenal (4HNE)” value (β-cells [1]; streptozotocin model, markers of oxidative stress and lipid peroxidation in the blood) is reported as “reduce”. For the same molecule, the “β-cell protection from oxidative stress and development of hyperglycemia over time” value (β-cells [2]) was “protects β-cells from oxidative stress and reduces the development of hyperglycemia over time compared to control”, the cholesterol [3, 8] was “reduced in comparison to control group” and the fasting glucose [3, 8] was “reduced in comparison to control group”. For the same molecule, the fructosamine [3, 8] was “reduced in comparison to control group”, the triglycerides [3, 8] was “reduced in comparison to control group” and the “reduction in plasmatic parameters compared with a salicylate or an antioxidant alone” value ([3]; 250 mg/kg/day, vs salicylic acid alone or N-acetylcysteine alone) was “more pronounced”. For the same molecule, the “fasting blood glucose values” (ob/ob and db/db mice; 250 mg/kg daily, 3 to 4 weeks, oral gavage, in food or subcutaneously, vs control or salicylate/antioxidant alone) was “reduced compared to the control group”, the insulin sensitivity (ob/ob and db/db mice; evidenced by a sustained and pronounced glucose lowering effect) was “improve insulin sensitivity” and the “capacity of the β-cells to secrete insulin” value (ob/ob and db/db mice; insulin measured 15 min following the glucose loading, vs control) was “greater”. The “oxidative stress and lipid peroxidation (8 OhdG, malondialdehyde, 4HNE)” value (ob/ob and db/db mice; level of associated biomarkers) was “a reduction in oxidative stress and lipid peroxidation”, the “levels of glutathione (GSH)” value (ob/ob and db/db mice; liver and kidney) was “restored” and the “inflammatory cytokines TNFα and IL-6” value (ob/ob and db/db mice; mouse, in vivo) was “reduced”. For the same molecule, the “glucose tolerance test (OGTT or IPTT): elevation of glucose levels” value (ob/ob and db/db mice; vs non treated animal) was “a reduction in the elevation of glucose levels during the test”, the Hb1Ac ([4]; 6 weeks, vs control group) was “reduced in comparison to the control group” and the cholesterol ([4]; 6 weeks, vs control group) was “reduced in comparison to the control group”. The fasting glucose ([4]; 6 weeks, vs control group) was “reduced in comparison to the control group”, the fructosamine ([4]; 6 weeks, vs control group) was “reduced in comparison to the control group” and the triglycerides ([4]; 6 weeks, vs control group) was “reduced in comparison to the control group”. For the same molecule, the glucose tolerance test ([4]; from 6 to 12 weeks of age) was “improves the glucose tolerance test”, the “insulin secretion from β-cells” value ([4]; from 6 to 12 weeks of age) was “preserves insulin secretion from β-cells” and the worsening of hyperglycemia ([4]; from 6 to 12 weeks of age) was “partially prevents the worsening of hyperglycemia”. The insulin levels (β-cells [5]; alloxan-treated animals, indicates pancreatic beta cell protection) was “preservation of insulin levels” and the “hypolipidemic, anti-diabetic and antioxidant effects” value [6] was “strong hypolipidemic and anti-diabetic effects as well as antioxidant properties”.

In the case of `CC(=O)NC(CSC(=O)c1ccccc1O)C(=O)O` (stereo not shown) [GMC-1.3a, salicylic acid-(L) N-acetyl cysteine], the “effect of alloxan on β-cells” value (β-cells [5]) is reported as “reduce the effect of alloxan on β-cells”.

In the case of `O=C(O)c1ccccc1O` [Salicylate], the fasting blood glucose [7] is given as “reduction in fasting blood glucose” and the glucose tolerance [7] is given as “glucose tolerance improvement”.

For `O=C(Oc1ccccc1C(=O)O)c1ccccc1O` [salsalate], the “effects in human diabetic patients” value (human diabetic patients) is given as “Beneficial effects”, the “side effects, such as tinnitus, enhanced by” value (human diabetic patients) is given as 66% and the IKKβ activity (IKKβ) is given as “decrease in IKKβ activity”. The insulin sensitivity (IKKβ) was “improvement in insulin sensitivity”.

In the case of `CC(=O)N[C@@H](CSC(=O)c1cc(-c2ccc(F)cc2F)ccc1O)C(=O)O` [GMC-1.3b, diflunisal-(L) N-acetyl cysteine], the “effect of alloxan on β-cells” value (β-cells [5]) is reported as “reduce the effect of alloxan on β-cells”.
